Source: patent US9320271B2, “Microbial composition” (Rohm and Haas Company, priority 2011, dated 2016)
“And” between values parts separate entries of the source, which are not always exact repeats. Identical values can stand only once.

Columns and labels:
Type in all cases: cell-based
[1] = tested on: Escherichia coli (10536 strain); assay: 15 second contact kill test versus E. coli (actives in water, mean bacterial survival NMBS); settings: for MBC (minimum biocidal concentration of antimicrobial components): Table 27; for NMBS: no alcohol, 15 s
Description: 15 Second Contact Kill Test Versus E. Coli and S. Aureus
Antimicrobial efficacy is tested against a representative pathogenic bacterial organism, Gram negative Escherichia coli. Concentrations of actives are expressed in terms of the percentage weight/volume (% w/v) throughout Example 1.
An overnight culture of Escherichia coli (10536 strain) was prepared in 50 ml total volume of TSB broth, grown for ca. 18 hrs at 37° C. and shaken at 150 rpm. 1 ml of this overnight E. coli culture was transferred to 50 ml of fresh TSB broth and incubated at 37° C. at 150 rpm for ca. 4 hours. This culture was separated into equal volumes and centrifuged at 4000 rpm for 15 minutes, washed with sterile saline (0.85% NaCl), centrifuged once more and re-suspended in saline to give a final concentration of 0.8 OD620 equivalent to about 10^8 cells per milliliter for this particular organism. Here, OD620 indicates the absorbance of a sample in a cuvette of 1.0 cm path length at a wavelength of 620 nm. This bacterial stock was used for assaying against antimicrobial actives (in triplicate). S. Aureus Bacterial Stock
The following assay describes the testing of 8 materials using 6 dilutions across half of a 96-well micro titre plate (MTP). Using this approach it is possible to assay 16 actives (without replicates) with one full dilution plate, replicating this set up in two halves of the plate columns, 1-6 and 7-12. 1M solutions of the test actives were prepared in dimethylsulphoxide (DMSO). […] Aliquots (270 μl) of the materials at 1.11 times the final concentration were dispensed into the wells of the MTP along one column (A1-H1). This MTP was labelled as the “Screening plate”. In another MTP, labelled as the “Dilution plate”, […] of D/E neutralising solution from DIFCO Composition was added to column 1. The composition of the neutralising solution was as follows: pancreatic digest of casein, 5.0 g/L; Yeast Extract, 2.5 g/L; Dextrose, 10 g/L, sodium thioglycollate, 1.0 g/L, sodium thiosulphate, 6.0 g/L; sodium bisulphite, 2.5 g/L; Polysorbate 80, 5.0 g/L; lecithin 7.0 g/L; bromocresol purple, 0.02 g/L with a pH in the range 7.6±0.2. 270 μl of tryptone diluent solution was added to all the remaining wells of the Dilution MTP (columns 2-6). Bacterial stock (30 μl) was then added to the prepared 270 μl of the solution of actives in the Screening Plate and mixed, using a multichannel pipette with 8 tips to aspirate and dispense the same volume of bacterial stock in parallel to 8 wells in rows A-H. After a contact time of 15 seconds, the mixtures were quenched by transferring 30 μl volumes of the mixtures into the 270 μl D/E neutralising solution in the prepared dilution plate, using aspiration to mix. After exactly 5 minutes in the D/E neutralising solution, 30 μl volumes were transferred from column 1 to column 2 of the Dilution MTP and mixed, before transferring further 30 μl volumes from column 2 into column 3. This process was repeated serially diluting the bacteria across the plate to column 6. 30 μl volumes from each well in the Dilution MTP were transferred onto pre-labelled segment of Tryptone Soya Agar (TSA) plates starting from the lowest bacterial concentration (highest dilution, column 6) to the highest bacterial concentration (column 1). The TSA plates were allowed to stand for ca. 2 hours so that the 30 μl inocula spots could dry and the plates were then inverted and incubated overnight at 37° C. before enumerating the bacterial colonies at the labelled dilutions to determine the effects of the actives on bacterial growth. Calculation of Results Mean bacterial survival numbers NMBS (expressed in Log CFU/ml) are obtained by first determining the segment of the TSA plate where the number of bacterial colonies is countable.

[2] = tested on: Escherichia coli (E. coli—ATCC #10536); assay: Automated assessment of efficacy in surfactant base (2.85% sodium cocoyl glycinate and 1.85% sodium lauroamphoacetate, pH 10.0), 15 seconds exposure; settings: for Δ OD 450 nm = OD450 (time = 16 hours) − OD450 (time zero), Mean / Δ OD 590 nm OD590 (time = 16 hours) − OD590 (time zero), Mean / No. of replicates showing growth (out of 4): alone, model surfactant solution; for MBC (minimum biocidal concentration): in 2.85% sodium cocoyl glycinate + 1.85% sodium lauroamphoacetate solution at pH 10, E. coli
Description: Test Methodology for Automated Assessment of Efficacy in Surfactant Base Microbiocidal Activity of Actives as Per the Invention in a Model Surfactant Medium Test Methodology for Automated Assessment of Efficacy in Surfactant Base In these examples, the efficacy of combinations of actives were tested in a surfactant cleansing formulation comprising 2.85% sodium cocoyl glycinate and 1.85% sodium lauroamphoacetate. This corresponds to a 50% in use dilution with water of a neat formulation containing 5.7% cocoyl glycinate and […] % sodium, lauroamphoacetate during hand washing. Solutions were prepared such that the concentrations of the surfactant components and test actives were 1.1× the final desired concentration in order to allow for dilution with the bacterial inoculum in the test. The solutions were manually adjusted to pH 10.0 by dropwise addition of sodium hydroxide solution, as measured with a pH meter at ambient temperature. The efficacy of the combinations of the present invention was determined against Escherichia coli (E. coli—ATCC #10536), at a concentration of approximately 1×10^8 bacteria per mL. Tests were conducted using standard microtiter plate assays using an automated liquid handling system. 270 μl of the surfactant test solution was pipetted into each well of the microtitre plate and 30 μl of the bacterial suspension was then added. Alter exactly 15 seconds of bacterial exposure, a 30 μl volume of bacterial cells was withdrawn and transferred to 270 μl of D/E quench solution. After 5 minutes in the D/E quench, the optical density (OD) was measured for each plate in turn at two specific wavelengths (450 nm and 590 nm). These provide a dual check of antimicrobial activity, as the OD450 reading is specific for the yellow colour of D/E quench when bacterial growth is observed, whereas OD590 is specific for the initial purple colour of the D/E quench which is retained if no bacterial growth is observed. After the time zero OD measurements, plates were then incubated at 37° C. overnight (16 hours) before repeating the OD measurements. Delta OD values were calculated by subtracting […]. Bacterial growth is observed as an increase in OD450 and a decrease in ΔOD590. To identify antibacterially efficacious systems (those preventing appreciable bacterial growth after incubation), the following threshold changes in OD readings have been adopted: if (1). OD450 increases by less than 0.2 absorbance unit on incubation and (2). OD590 decreases by less than 0.35 unit on incubation. Conversely, where OD450 increases by more than 0.2 AU and OD590 decreases by more than 0.35 unit after incubation, corresponding to a colour shift from purple to yellow, the test system allows bacterial growth and is not deemed efficacious. Four replicate measurements in the same plate have been made for each test system. The number of replicate wells showing either bacterial growth or no growth is also readily assessed by eye by following the colour change. Dose responses for individual components and binary mixtures of actives at a fixed concentration ratio were generated by sequential dilution of liquors with further surfactant solution to obtain a series of endpoints. […] In some selected cases, the combinations were also tested at the weight ratio 1:1.

[3] = tested on: Escherichia coli (E. coli—ATCC #10536); assay: Synergy test: high resolution MBC microtiter plate assay, phosphate buffer containing 35% dipropylene glycol, 15 seconds contact; settings: E. coli 10536; for SI (Synergy Index): at Qa and Qb, less than one = synergy; for MBC of the component acting alone (QA / QB; Qa or Qb where the other component is 0): complete kill in 15 seconds
Text: The concentrations and ratios may also vary under different test conditions or with different test methods.
One measure of synergy is the industrially accepted method described by Kull, F. C.; Eisman, P. C.; Sylwestrowicz, H. D, and Mayer, R. L., in Applied Microbiology 9:538-541 (1961), using the ratio determined by the formula: […]=Synergy Index (“SI”) wherein; QA=concentration of compound A (first component) in percent, acting alone, which produced an end point (MBC of Compound A). Qa=concentration of compound A in percent, in the mixture, which produced an end point. QB=concentration of compound B (second component) in percent, acting alone, which, produced an end point (MBC of Compound B). Qb=concentration of compound B in percent, in the mixture, which produced an end point.
When the sum of Qa/QA and Qb/QB is greater than one, antagonism is indicated. […] The lower the SI, the greater is the synergy shown by that particular mixture. The minimum biocidal concentration (MBC) of a microbicide is the lowest concentration tested under a specific set of conditions that provides complete kill of the tested microorganisms.
Synergy tests were conducted using standard microliter plate assays with phosphate buffer containing 35% dipropylene glycol (DPG). In this method, a wide range of combinations of chemicals was tested by conducting high resolution MBC assays of Component (A) in the presence of various concentrations of Component (B). High resolution MBCs were determined by adding varying amounts of microbicide to one column of a microliter plate and doing subsequent […] dilutions using an automated liquid handling, system to obtain a series of closely spaced endpoints. The MBC plate was inoculated one column at a time with the test microorganism. An aliquot of the inoculated well was transferred at 15 seconds to a plate containing a neutralizing agent (D/E Neutralizing Broth), mixed and held for 5 minutes before being transferred to a growth plate containing trypticase soy broth (TSB). The TSB plate was incubated at 37° C. and read for the presence/absence of growth at 24 hours. The lowest level tested that provided complete kill (as evidenced by no growth in the microtitre plate) of the test organisms in 15 seconds is the minimum biocidal concentration (MBC).
The synergy of the combinations of the present invention was determined against a bacterium, Escherichia coli (E. coli—ATCC #10536), at a concentration of approximately 1×10^8 it bacteria per mL. This microorganism is representative of natural contaminants in many consumer and industrial applications.

[4] = Table 28, E. coli, component alone

Structure (SMILES) | MBC (minimum biocidal concentration of antimicrobial components) ([1]; component alone) | Antimicrobial alcohol MBC [1, 4] | Δ OD 450 nm = OD450 (time = 16 hours) − OD450 (time zero), Mean ([2]; 0.2% w/v) | Δ OD 590 nm OD590 (time = 16 hours) − OD590 (time zero), Mean ([2]; 0.2% w/v) | Δ OD 450 nm = OD450 (time = 16 hours) − OD450 (time zero), Mean ([2]; 0.3% w/v) | Δ OD 590 nm OD590 (time = 16 hours) − OD590 (time zero), Mean ([2]; 0.3% w/v) | No. of replicates showing growth (out of 4) ([2]; 0.5% w/v) | Δ OD 450 nm = OD450 (time = 16 hours) − OD450 (time zero), Mean ([2]; 0.5% w/v) | Δ OD 590 nm OD590 (time = 16 hours) − OD590 (time zero), Mean ([2]; 0.5% w/v) | Δ OD 450 nm = OD450 (time = 16 hours) − OD450 (time zero), Mean ([2]; […] w/v) | Δ OD 590 nm OD590 (time = 16 hours) − OD590 (time zero), Mean ([2]; […] w/v) | MBC (minimum biocidal concentration) [2] | SI (Synergy Index) [3] | MBC of the component acting alone (QA / QB; Qa or Qb where the other component is 0) [3] | other results
CC1=CC[C@@H](CO)[C@H](C)C1 (relative stereo) [floralol, Trans-4,6-dimethyl-3-Cyclohexene-1-methanol] | 0.3 % w/v | 0.3 % (w/v) | −1.43 | 0.35 | −1.20 | 0.55 | 0 | −0.06 | 0.09 | −0.29 | 0.23 | 0.4 % w/v | – | – | –
Oc1ccc(Cc2ccccc2)cc1 [4-benzylphenol, 4-benzyl phenol] | 0.05 % w/v | – | – | – | – | – | – | – | – | – | – | – | – | – | NMBS ([1]; 0.0125% 4-benzylphenol, E. coli): 7.75 log CFU/ml; NMBS ([1]; 0.05% 4-benzylphenol, E. coli): 0.00 log CFU/ml; Phenolic compound MBC [1, 4]: 0.5 % (w/v); NMBS ([1]; […] 4-benzylphenol, E. coli): 4.20 log CFU/ml
Oc1ccc2c(c1)CCCC2 [5,6,7,8-tetrahydronaphthalen-2-ol] | – | – | −1.55 | 0.36 | – | – | – | – | – | −1.60 | 0.31 | – | 1.00 | 0.8 weight % and 0.6 weight % | No. of replicates showing growth (out of 4) ([2]; 0.1% w/v): 4; Δ OD 450 nm = OD450 (time = 16 hours) − OD450 (time zero), Mean ([2]; 0.1% w/v): −1.56; Δ OD 590 nm OD590 (time = 16 hours) − OD590 (time zero), Mean ([2]; 0.1% w/v): 0.32; No. of replicates showing growth (out of 4) ([2]; 0.2% w/v): 4; No. of replicates showing growth (out of 4) ([2]; […] w/v): 4
C=C(C)[C@@H]1CC=C(CO)CC1 [(4S)-(4-(prop-1-en-2-yl)cyclohex-1-enyl)methanol] | – | – | – | – | – | – | – | – | – | – | – | 0.4 % w/v | 1.00 | 0.5 weight % and 0.3 weight % and 0.6 weight % | –
CC1CCC(CO)C(C)C1 (centres unmarked) [dihydrofloralol, 2,4-Dimethylcyclohexylmethanol] | 0.5 % w/v | 0.5 % (w/v) | −1.39 | 0.41 | −1.15 | 0.60 | 0 | −0.06 | 0.10 | −0.28 | 0.28 | 0.4 % w/v | – | – | No. of replicates showing growth (out of 4) ([2]; 0.3% w/v): 4
